According to patent US8859235B2, “Methods in cell cultures, and related inventions, employing certain additives” (priority 2009, dated 2014):

Key:
E. coli HM125 = test: Growth and expression of FimH-CRD in E. coli HM125, shake flask cultivation in mineral medium; assay type: cell-based, Escherichia coli; details: for mg FimH/g cell: control 0.81; for FimH / Cell pellet: mean of triplicate; for FimH: control 6.48 ± 0.36; for Cell pellet: control 7.99 ± 0.25
Text: Standard molecular techniques are used for the cloning of the FimH carbohydrate recognition domain (FimH-CRD). The plasmid pfimHs-trc, encoding FimH lectin domain (1-156 amino acids M. Vetsch P et. al. 2002—J. Mol. Biol. 322: 827-840), is kindly provided by R. Glockshuber (ETH Zürich, Switzerland). The FimH-CRD fragment is amplified by polymerase chain reaction using specific forward primer containing the restriction site NdeI and a specific reverse primer containing the thrombin cleavage site and the restriction site XhoI, respectively. The insert is ligated into the corresponding cloning site in pET21b. The resulting contrast is named pET21b-FimH-CRD.
Precultures are prepared in 25 mL sterile LB medium [Tryptone (10.0 g/L), yeast extract (5.0 g/L), NaCl (10.0 g/L), ampicillin 100 (mg/L); adjusted to pH 7.0 with NaOH]. Cultures are inoculated with a glycerol stock stored at −80° C. of the protease deficient strain E. coli HM125 (Meerman H J & Georgiou G. 1994. Biotechnology (NY) 2, 1107-1110) harboring the plasmid pET21b-FimH-CRD Vector. Precultures are incubated at 37° C. for 10-12 h. Experimental cultures are performed in a volume of 500 mL of modified M9 medium [Na2HPO4×7H2O (12.8 g/L), KH2PO4 (3 g/L), NaCl (0.5 g/L), NH4Cl (1 g/L), D-glucose (4 g/L), MgSO4 (0.12 g/L), CaCl2 (0.01 g/L) and vitamins (in mg/L): riboflavin (0.1), choline chloride (1), folic Acid (1), niacinamide (1), p-amino benzoic acid (1), pyridoxal-HCl (1), thiamine-HCl (1), myo-lnositol (2)] supplemented with 100 mg/L ampicillin. Cultures are inoculated with 5 mL of the preoculture and grown at 30° C. and 150 rpm) until the optical density at 600 nm (0D600) reached 0.8-1.0. Then 1 mM IPTG and the stabilizer(s) (obligatory additive) according to the invention are added to final concentrations of 5, 10 and 20 mM as indicated from sterile stock solutions and the cultures are grown overnight. Then the cells are cooled on ice for 5 min and harvested by centrifugation at 5′000 rpm for 20 min at 4° C. Cell are harvested by centrifugation and biomass is quantified by weighing the wet cell pellets. The pellet is suspended in a cold solution of 50 mM Tris-HCl, pH 7.5, 150 mM NaCl, 5 mM EDTA, 1 mg/mL polymyxin B sulfate and stirred for two hours at 4° C. After centrifugation at 11′000 rpm for 20 min at 4° C., the supernatant (periplasmic extract) is dialyzed overnight against 50 mM NaH2PO4, 300 mM NaCl and 10 mM imidazole, pH 8 (binding buffer) and applied to a Ni-NTA column (Sigma, Buchs, Switzerland) attached to a BioLogic fast protein liquid chromatography system (BioRad, Reinach BL, Switzerland). The column is washed with binding buffer and afterwards eluted with 50 mM NaH2PO4, 300 mM NaCl and 250 mM imidazole, pH 8 (elution buffer). Fractions containing FimH-CRD-Th-6H is are pooled and dialyzed against water and then against 20 mM HEPES, 150 mM NaCl and 1 mM CaCl2, pH 7.4.
The concentration of protein is determined by HPLC method (Agilent 1100/1200 series) using BSA as standard (Sigma). The column Poros R1/10 10 μm (100×2 mm, Morvay Analytik) is kept at 60° C.; eluents are A: 0.1% trifluoroacetic acid (TFA) in H2O and B: 90% MeCN+0.09% TFA. A gradient of 20% B to 90% B is run within 20 min at a flow rate of 0.2 mL/min. The detection is monitored at 210 nm. Results are compiled in the following tables 5 and 6.

human cancer cells = details: due to SAPK and p38 MAPK signal pathway modulation; US 2004/024025; cited from earlier work

SMILES: CC1(C)CCCC(C)(C)N1[O] [TEMPO, 2,2,6,6-Tetramethyl-1-piperidinyloxy radical, reference compound]
- mg FimH/g cell (E. coli HM125; additive 5 mM): 1.14 mg FimH/g cell
- FimH (E. coli HM125; additive 5 mM): 8.85 ± 0.21 mg/L
- Cell pellet (E. coli HM125; additive 5 mM): 7.78 ± 0.45 g/L
- mg FimH/g cell (E. coli HM125; additive 10 mM): 1.15 mg FimH/g cell
- FimH (E. coli HM125; additive 10 mM): 8.61 ± 0.14 mg/L
- Cell pellet (E. coli HM125; additive 10 mM): 7.44 ± 0.32 g/L
- mg FimH/g cell (E. coli HM125; additive 20 mM): 1.26 mg FimH/g cell
- FimH (E. coli HM125; additive 20 mM): 8.26 ± 0.54 mg/L
- Cell pellet (E. coli HM125; additive 20 mM): 6.54 ± 0.2 g/L
- Apoptosis in human cancer cells (human cancer cells): increased apoptosis
